Results on 36 compounds are retold here after patent publication US7420056B2, “Substituted bicyclic imidazo-3-ylamine compounds” (Gruenenthal GmbH, priority 2004, dated 2008).

In this test the target is mGluR5 receptor (Sus scrofa, UniProt I3LUI7). In words: Affinity for the mGluR5 receptor: inhibition of 3[H]-MPEP binding in pig brain homogenate. The settings on record: 3[H]-MPEP binding. In short, it runs like this: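 Test compounds were screened at 10 μM for displacement of 5 nM [3H]-MPEP from pig brain homogenate (450 μg protein, pH 8.0 Hepes buffer) over 60 min at room temperature. After filtration, scintillation counting gave the read-out. 10 μM unlabelled MPEP set nonspecific binding.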

Counter-ions that a name gives are not always drawn.

Chain of mGluR5 receptor (I3LUI7 19-1212): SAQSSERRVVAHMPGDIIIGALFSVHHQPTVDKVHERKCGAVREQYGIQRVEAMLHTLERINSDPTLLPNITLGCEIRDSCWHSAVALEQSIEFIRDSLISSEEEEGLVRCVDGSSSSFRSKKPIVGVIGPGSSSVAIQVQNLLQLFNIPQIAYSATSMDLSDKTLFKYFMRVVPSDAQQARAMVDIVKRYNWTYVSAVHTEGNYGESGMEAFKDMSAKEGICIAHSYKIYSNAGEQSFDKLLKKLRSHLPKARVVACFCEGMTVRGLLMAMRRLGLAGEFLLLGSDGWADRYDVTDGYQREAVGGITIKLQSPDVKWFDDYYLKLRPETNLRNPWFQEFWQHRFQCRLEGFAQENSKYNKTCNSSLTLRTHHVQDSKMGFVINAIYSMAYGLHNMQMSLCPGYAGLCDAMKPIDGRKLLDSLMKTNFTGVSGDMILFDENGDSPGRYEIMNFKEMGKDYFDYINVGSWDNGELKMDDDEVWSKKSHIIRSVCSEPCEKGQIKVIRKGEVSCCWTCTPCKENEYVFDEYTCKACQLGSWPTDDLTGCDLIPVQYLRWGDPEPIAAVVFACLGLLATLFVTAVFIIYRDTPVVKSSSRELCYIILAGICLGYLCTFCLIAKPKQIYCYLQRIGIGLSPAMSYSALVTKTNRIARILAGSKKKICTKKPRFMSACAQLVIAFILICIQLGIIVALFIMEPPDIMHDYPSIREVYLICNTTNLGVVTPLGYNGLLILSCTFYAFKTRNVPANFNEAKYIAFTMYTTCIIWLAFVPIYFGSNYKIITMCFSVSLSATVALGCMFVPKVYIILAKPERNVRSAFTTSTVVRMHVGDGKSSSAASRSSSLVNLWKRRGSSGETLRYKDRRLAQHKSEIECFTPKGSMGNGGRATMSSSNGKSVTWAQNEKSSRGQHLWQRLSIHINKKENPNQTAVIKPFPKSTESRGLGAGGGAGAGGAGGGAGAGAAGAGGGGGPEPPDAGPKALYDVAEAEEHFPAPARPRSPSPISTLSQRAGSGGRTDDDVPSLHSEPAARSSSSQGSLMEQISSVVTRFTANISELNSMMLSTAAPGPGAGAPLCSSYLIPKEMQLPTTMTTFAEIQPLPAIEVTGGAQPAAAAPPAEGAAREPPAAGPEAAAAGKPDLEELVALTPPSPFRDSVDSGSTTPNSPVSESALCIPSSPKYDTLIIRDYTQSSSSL

What is called IC50 is the concentration needed to halve the response being measured. The low end stands for higher potency, the high end for lower potency. The compound `CC(C)(C)Nc1c(-c2nc(C#Cc3ccccc3)cs2)nc2cnccn12` [Example 138, N-tert-butyl-2-(4-(phenylethynyl)thiazol-2-yl)imidazo[1,2-a]pyrazin-3-amine] yielded an IC50 of 15.1 µM.
Consider `Cc1cccc(C#Cc2ccc(-c3nc4cnccn4c3NC(C)(C)C)s2)c1` [Example 139, N-tert-butyl-2-(5-(m-tolylethynyl)thiophen-2-yl)imidazo[1,2-a]pyrazin-3-amine], for which the IC50 was 0.071 µM.
With `CC(C)(C)Nc1c(-c2ccc(C#Cc3cccc(C#N)c3)s2)nc2cnccn12` [Example 140, 3-((5-(3-(tert-butylamino)imidazo[1,2-a]pyrazin-2-yl)thiophen-2-yl)ethynyl)benzonitrile hydrochloride] the figure was 0.026 µM; with `CC(C)(C)Nc1c(-c2ccc(C#Cc3ccccn3)s2)nc2ncccn12` [Example 141, N-tert-butyl-2-(5-(pyridin-2-ylethynyl)thiophen-2-yl)imidazo[1,2-a]pyrimidin-3-amine], 0.0028 µM.
With `CN(c1c(-c2ccc(C#Cc3ccccn3)s2)nc2cnccn12)C(C)(C)C` [Example 143, N-tert-butyl-N-methyl-2-(5-(pyridin-2-ylethynyl)thiophen-2-yl)imidazo[1,2-a]pyrazin-3-amine] the figure was 0.0032 µM; with `CC(C)(C)Nc1c(-c2ccc(C#Cc3ccc(C#N)cc3)s2)nc2cnccn12` [Example 144, 4-((5-(3-(tert-butylamino)imidazo[1,2-a]pyrazin-2-yl)thiophen-2-yl)ethynyl)benzonitrile hydrochloride], 3.68 µM.
With `CC(C)(C)Nc1c(-c2cnc(C#Cc3ccccc3)s2)nc2cnccn12` [Example 146, N-tert-butyl-2-(2-(phenylethynyl)thiazol-5-yl)imidazo[1,2-a]pyrazin-3-amine], the IC50 was found to be 0.035 µM. Against the preceding compound, the IC50 is about 110-fold lower.
With `CC(C)(C)Nc1c(-c2ccc(C#Cc3cccc(-n4cccc4)c3)s2)nc2cnccn12` [Example 148, 2-(5-((3-(1H-pyrrol-1-yl)phenyl)ethynyl)thiophen-2-yl)-N-tert-butylimidazo[1,2-a]pyrazin-3-amine hydrochloride] the figure was 0.33 µM.
The same measure for `CC(C)(C)Nc1c(-c2ccc(C#Cc3cccc([N+](=O)[O-])c3)s2)nc2cnccn12` [Example 150, N-tert-butyl-2-(5-((3-nitrophenyl)ethynyl)thiophen-2-yl)imidazo[1,2-a]pyrazin-3-amine hydrochloride]: 0.11 µM; for `CC(C)(C)Nc1c(-c2ccc(C#Cc3cscn3)s2)nc2cnccn12` [Example 152, N-tert-butyl-2-(5-(thiazol-4-ylethynyl)thiophen-2-yl)imidazo[1,2-a]pyrazin-3-amine hydrochloride]: 0.023 µM.
Compound `CC(C)(C)Nc1c(-c2ccc(C#Cc3ccccc3O)s2)nc2cnccn12` [Example 153, 2-((5-(3-(tert-butylamino)imidazo[1,2-a]pyrazin-2-yl)thiophen-2-yl)ethynyl)phenol] registered an IC50 of 2.99 µM. Against the preceding compound, the IC50 is about 130-fold higher.
The same measure for `CC(C)(C)Nc1c(-c2ccc(C#Cc3cccc(CN)c3)s2)nc2cnccn12` [Example 154, 2-(5-((3-(aminomethyl)phenyl)ethynyl)thiophen-2-yl)-N-tert-butylimidazo[1,2-a]pyrazin-3-amine]: 0.59 µM.
With `CC(C)(C)Nc1c(-c2ccc(C#Cc3ccsc3)s2)nc2cnccn12` [Example 156, N-tert-butyl-2-(5-(thiophen-3-ylethynyl)thiophen-2-yl)imidazo[1,2-a]pyrazin-3-amine hydrochloride] the figure was 0.027 µM; with `CN(C)c1cccc(C#Cc2ccc(-c3nc4cnccn4c3NC(C)(C)C)s2)c1` [Example 157, N-tert-butyl-2-(5-((3-(dimethylamino)phenyl)ethynyl)thiophen-2-yl)imidazo[1,2-a]pyrazin-3-amine hydrochloride], 1.55 µM; with `Cc1cccc(C#Cc2ccc(-c3nc4cnccn4c3NC(C)(C)C)s2)n1` [Example 158, N-tert-butyl-2-(5-((6-methylpyridin-2-yl)ethynyl)thiophen-2-yl)imidazo[1,2-a]pyrazin-3-amine hydrochloride], 0.033 µM.
The compound `CC(C)(C)Nc1c(-c2ccc(C#Cc3ncccc3F)s2)nc2cnccn12` [Example 159, N-tert-butyl-2-(5-((3-fluoropyridin-2-yl)ethynyl)thiophen-2-yl)imidazo[1,2-a]pyrazin-3-amine hydrochloride] registered an IC50 of 0.01 µM.
The compound `CNc1cccc(C#Cc2ccc(-c3nc4cnccn4c3NC(C)(C)C)s2)c1` [Example 160, N-tert-butyl-2-(5-((3-(methylamino)phenyl)ethynyl)thiophen-2-yl)imidazo[1,2-a]pyrazin-3-amine hydrochloride] gave an IC50 of 0.094 µM.
Turning to `Cc1ccc(C#Cc2ccc(-c3nc4cnccn4c3NC(C)(C)C)s2)cc1` [Example 161, N-tert-butyl-2-(5-(p-tolylethynyl)thiophen-2-yl)imidazo[1,2-a]pyrazin-3-amine], the IC50 is 7.74 µM.
In turn, `Cc1ccccc1C#Cc1ccc(-c2nc3cnccn3c2NC(C)(C)C)s1` [Example 162, N-tert-butyl-2-(5-(o-tolylethynyl)thiophen-2-yl)imidazo[1,2-a]pyrazin-3-amine hydrochloride] gave an IC50 of 4.24 µM. Compared with the last compound, the IC50 is about 1.8-fold lower.
With `Cc1cc(-c2nc3cnccn3c2NC(C)(C)C)sc1C#Cc1ccccn1` [Example 164, N-tert-butyl-2-(4-methyl-5-(pyridin-2-ylethynyl)thiophen-2-yl)imidazo[1,2-a]pyrazin-3-amine hydrochloride] the figure was 0.054 µM.
With `CC(C)(C)Nc1c(-c2ccc(C#Cc3cccc(F)n3)s2)nc2cnccn12` [Example 165, N-tert-butyl-2-(5-((6-fluoropyridin-2-yl)ethynyl)thiophen-2-yl)imidazo[1,2-a]pyrazin-3-amine] the figure was 0.018 µM; with `CC(C)(C)Nc1c(-c2ccc(C#Cc3ccccc3[N+](=O)[O-])s2)nc2cnccn12` [Example 166, N-tert-butyl-2-(5-((2-nitrophenyl)ethynyl)thiophen-2-yl)imidazo[1,2-a]pyrazin-3-amine], 11.3 µM; with `CC(C)(C)Nc1c(-c2ccc(C#Cc3ccccn3)s2)nc2c(Cl)nccn12` [Example 167, N-tert-butyl-8-chloro-2-(5-(pyridin-2-ylethynyl)thiophen-2-yl)imidazo[1,2-a]pyrazin-3-amine], 0.012 µM.
The same measure for `COc1cccc(C#Cc2ccc(-c3nc4cnccn4c3NC(C)(C)C)s2)n1` [Example 168, N-tert-butyl-2-(5-((6-methoxypyridin-2-yl)ethynyl)thiophen-2-yl)imidazo[1,2-a]pyrazin-3-amine]: 0.64 µM.
Take `CC(C)(C)Nc1c(-c2ccc(C#Cc3ccc(F)cn3)s2)nc2cnccn12` [Example 169, N-tert-butyl-2-(5-((5-fluoropyridin-2-yl)ethynyl)thiophen-2-yl)imidazo[1,2-a]pyrazin-3-amine hydrochloride]: the IC50 was 0.011 µM.
The same measure for `COc1cncc(C#Cc2ccc(-c3nc4cnccn4c3NC(C)(C)C)s2)c1` [Example 171, N-tert-butyl-2-(5-((5-methoxypyridin-3-yl)ethynyl)thiophen-2-yl)imidazo[1,2-a]pyrazin-3-amine hydrochloride]: 0.36 µM; for `CC(C)(C)Nc1c(-c2ccc(C#Cc3cncc(C#N)c3)s2)nc2cnccn12` [Example 172, 5-((5-(3-(tert-butylamino)imidazo[1,2-a]pyrazin-2-yl)thiophen-2-yl)ethynyl)nicotinonitrile hydrochloride]: 0.036 µM; for `CSc1cccc(C#Cc2ccc(-c3nc4cnccn4c3NC(C)(C)C)s2)c1` [Example 173, N-tert-butyl-2-(5-((3-(methylthio)phenyl)ethynyl)thiophen-2-yl)imidazo[1,2-a]pyrazin-3-amine]: 0.8 µM.
The same measure for `COC(=O)c1cccc(C#Cc2ccc(-c3nc4cnccn4c3NC(C)(C)C)s2)c1` [Example 174, methyl-3-((5-(3-(tert-butylamino)imidazo[1,2-a]pyrazin-2-yl)thiophen-2-yl)ethynyl)benzoate]: 0.84 µM; for `CC(C)(C)Nc1c(-c2ccc(C#Cc3ncc(F)cc3F)s2)nc2cnccn12` [Example 175, N-tert-butyl-2-(5-((3,5-difluoropyridin-2-yl)ethynyl)thiophen-2-yl)imidazo[1,2-a]pyrazin-3-amine]: 0.051 µM; for `CC(C)(C)Nc1c(-c2cnc(C#Cc3ccncc3)s2)nc2cnccn12` [Example 177, N-tert-butyl-2-(2-(pyridin-4-ylethynyl)thiazol-5-yl)imidazo[1,2-a]pyrazin-3-amine]: 0.016 µM.
`CC(C)(C)Nc1c(-c2ccc(C#Cc3cccc(C=O)c3)s2)nc2cnccn12` [Example 178, 3-((5-(3-(tert-butylamino)imidazo[1,2-a]pyrazin-2-yl)thiophen-2-yl)ethynyl)benzaldehyde] showed an IC50 of 0.024 µM.
The same measure for `CC(C)(C)Nc1c(-c2ccc(C#Cc3cc(C#N)ccc3F)s2)nc2cnccn12` [Example 179, 3-((5-(3-(tert-butylamino)imidazo[1,2-a]pyrazin-2-yl)thiophen-2-yl)ethynyl)-4-fluorobenzonitrile]: 0.026 µM; for `CC(C)(C)Nc1c(-c2ccc(C#Cc3cccc(C(F)(F)F)c3)s2)nc2cnccn12` [Example 180, N-tert-butyl-2-(5-((3-(trifluoromethyl)phenyl)ethynyl)thiophen-2-yl)imidazo[1,2-a]pyrazin-3-amine hydrochloride]: 0.58 µM; for `CC(C)(C)Nc1c(-c2cnc(C#Cc3ccccn3)s2)nc2cnccn12` [Example 181, N-tert-butyl-2-(2-(pyridin-2-ylethynyl)thiazol-5-yl)imidazo[1,2-a]pyrazin-3-amine]: 0.018 µM.
Turning to `Cc1cc(C#Cc2ccccc2)sc1-c1nc2cnccn2c1NC(C)(C)C` [Example 182, N-tert-butyl-2-(3-methyl-5-(phenylethynyl)thiophen-2-yl)imidazo[1,2-a]pyrazin-3-amine hydrochloride], the IC50 was 8.85 µM.
